{
  "source": "patent US20180264134A1",
  "about": "“A COMPOSITION OF GOLD NANOPARTICLES HAVING ANTIMICROBIAL PEPTIDES BOUND ON THEIR SURFACE FOR USE THE TREATMENT OF WOUND HEALING OR IN THE TREATMENT OF ISCHEMIC OR VASCULAR DISEASES OR IN THE TREATMENT OF SKIN DISORDERS” (priority 2015, published 2018)",
  "key": {"EGFR": {"system": "EGFR", "test": "EGFR phosphorylation in HaCaT (ELISA)", "assay_type": "cell-based, human", "conditions": "LL37 5 μg/mL; LL37-Au NPs 15 or 200 μg/mL", "protocol": "In an embodiment the detection of EGFR and ERK1/2 phosphorylation, can be perform by: the activation of EGFR receptor in HaCaT (80% confluency, in 6-well plates) was induced by starving the cells for 24 h in DMEM supplemented with 1% (v/v) penicillin and adding soluble LL37, LL37-Au NPs and Au NPs for a given period of time. Following treatment, the plates were immersed in ice and the medium was discarded. Then the proteins were isolated from the cells . . . . The levels of EGFR (phosphorylated EGFR and total EGFR) were determined by ELISA kit (R&D Systems). The activation of ERK signaling pathways in HaCaT (80% confluency, in one 96-well cell culture clear-bottom black microplate) were obtained starving the cells for 24 h in DMEM supplemented with 1% (v/v) penicillin and then stimulating them with soluble LL37 (5 μg/mL), LL37-Au NPs and Au NPs (200 μg/mL). After treatments the level of ERK were determined using a phosphoprotein and total protein ELISA kit (R&D Systems ref. KCB1018) according to the manufacture's instructions. Data were acquired with a BioTek synergy MX microplate reader."}, "venous leg ulcers": {"system": "venous leg ulcers", "conditions": "cited from earlier work"}, "HUVECs": {"system": "HUVECs", "test": "Membrane potential by DiOC5(3) flow cytometry in HUVECs", "assay_type": "cell-based, human", "conditions": "5 h exposure", "protocol": "In an embodiment the membrane potential can be determined by: HUVEC and HaCaT cells were seeded at a density of 4×10^4 cells/cm^2 and in 24-well plates and cultured for 24 h. Either LL37 Au-NPs or Au-NPs suspended in culture medium at different concentrations (25, 50, 100 and 200 μg/mL, n=3) were added to cells. Soluble LL37 were also used in the concentration of 0.5, 1, 10, 30, 60 μg/mL. After 5 and 48 h, cells were harvested, resuspended in medium with 5 nM of DiOC5(3) (Sigma-Aldrich) and incubated for 5 min at room temperature in the dark, prior to the analysis with the flow cytometer (FACSCalibur, BD Biosciences). Cells treated with gramicidin (10 μM) or valinomycin (10 μM) were used as controls for cell depolarization and hyperpolarization, respectively."}, "[1]": {"system": "chorioallantoic membrane (CAM)", "test": "Chorioallantoic membrane (CAM) assay", "assay_type": "in vivo", "conditions": "CAM vs vehicle", "protocol": "In an embodiment, the evaluation of the pro-angiogenic properties of LL37-Au NPs. […] The formation of new blood vessels is a prerequisite of tissue repair and wound healing. Therefore, it was evaluated the inductive properties of LL37 and LL37-Au NPs on human umbilical vein endothelial cells (HUVECs) to secrete vascular endothelial growth factor (VEGF165) (FIG. 14b). […] Next, the assessment of the pro-angiogenic activity of LL37 and LL37-Au NPs in a chorioallantoic membrane (CAM) assay was made."}},
  "data": [
    {"smiles": "CC[C@H](C)[C@H](NC(=O)[C@H](CCCCN)NC(=O)[C@H](CCC(=O)O)NC(=O)[C@H](CCCCN)NC(=O)[C@H](CO)NC(=O)[C@H](CCCCN)NC(=O)[C@H](CCCNC(=N)N)NC(=O)[C@H](Cc1ccccc1)NC(=O)[C@H](Cc1ccccc1)NC(=O)[C@H](CC(=O)O)NC(=O)CNC(=O)[C@H](CC(C)C)NC(=O)[C@@H](N)CC(C)C)C(=O)NCC(=O)N[C@@H](CCCCN)C(=O)N[C@@H](CCC(=O)O)C(=O)N[C@@H](Cc1ccccc1)C(=O)N[C@@H](CCCCN)C(=O)N[C@@H](CCCNC(=N)N)C(=O)N[C@H](C(=O)N[C@H](C(=O)N[C@@H](CCC(N)=O)C(=O)N[C@@H](CCCNC(=N)N)C(=O)N[C@H](C(=O)N[C@@H](CCCCN)C(=O)N[C@@H](CC(=O)O)C(=O)N[C@@H](Cc1ccccc1)C(=O)N[C@@H](CC(C)C)C(=O)N[C@@H](CCCNC(=N)N)C(=O)N[C@@H](CC(N)=O)C(=O)N[C@@H](CC(C)C)C(=O)N[C@H](C(=O)N1CCC[C@H]1C(=O)N[C@@H](CCCNC(=N)N)C(=O)N[C@H](C(=O)N[C@@H](CCC(=O)O)C(=O)N[C@@H](CO)C(=O)N[C@@H](CS)C(N)=O)[C@@H](C)O)C(C)C)[C@@H](C)CC)C(C)C)[C@@H](C)CC", "note": "[LL37]", "values": [
      {"measurement": "persistence of EGFR phosphorylation", "setting": "EGFR", "result": 10, "unit": "min"},
      {"measurement": "time of peak EGFR phosphorylation", "setting": "EGFR", "result": 8, "unit": "min"},
      {"measurement": "primary safety and tolerability end-point", "setting": "venous leg ulcers; patients with venous leg ulcers", "result": "met"},
      {"measurement": "healing rate compared with placebo", "setting": "venous leg ulcers; twice per week, 0.5 mg/mL", "result": "statistically significant improved healing rate"},
      {"measurement": "concentration causing depolarization", "setting": "HUVECs", "result": "above 30 μg/mL"},
      {"measurement": "concentration causing hyperpolarization", "setting": "HUVECs", "result": "below 30 μg/mL"},
      {"measurement": "pro-angiogenic activity (vessel growth)", "setting": "[1]", "result": "induced vessel growth"}
    ]}
  ]
}
